Test results from ChEMBL document CHEMBL1201862, “PubChem BioAssay data set” (2004).
Active and inactive are the calls of the source.

Key:
[1] = biological target: Troponin, cardiac muscle (Homo sapiens, UniProt P19429+P45379+P63316); assay: Fluorescence-based biochemical high throughput dose response assay for activators of the calcium sensitivity of cardiac Regulated Thin Filaments (RTF). [Related pubchem assays (depositor defined):AID493008, AID493018, AID504382, AID504383]; assay type: protein-complex assay
[2] = biological target: T1, Endoribonuclease toxin MazF (Escherichia coli K-12, UniProt P0AE70); assay: activation of MazEF endoribonuclease cleavage – biochemical, fluorescence, single-stranded RNA substrate, uHTS hits, dose response (AID 588481); assay type: functional
T1 sequence (P0AE70 whole entry): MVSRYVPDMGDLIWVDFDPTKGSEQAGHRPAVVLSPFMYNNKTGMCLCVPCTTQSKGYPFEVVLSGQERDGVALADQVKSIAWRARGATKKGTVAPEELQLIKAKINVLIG

[3] = biological target: T1, Endoribonuclease toxin MazF; assay: substrate-only fluorescence increase artefacts – biochemical, single-stranded RNase substrate, counter-screen for MazEF activator project, dose response (AID 588502); assay type: functional
[4] = biological target: T2, Corticotropin-releasing factor receptor 2/Corticotropin-releasing factor-binding protein (Homo sapiens, UniProt P24387+Q13324); assay: activators of CRF receptor 2 with binding protein – uHTS hits, confirmation (AID 602473); assay type: functional; settings: read-out: EC50_Mean
T2 sequence (Q13324 whole entry): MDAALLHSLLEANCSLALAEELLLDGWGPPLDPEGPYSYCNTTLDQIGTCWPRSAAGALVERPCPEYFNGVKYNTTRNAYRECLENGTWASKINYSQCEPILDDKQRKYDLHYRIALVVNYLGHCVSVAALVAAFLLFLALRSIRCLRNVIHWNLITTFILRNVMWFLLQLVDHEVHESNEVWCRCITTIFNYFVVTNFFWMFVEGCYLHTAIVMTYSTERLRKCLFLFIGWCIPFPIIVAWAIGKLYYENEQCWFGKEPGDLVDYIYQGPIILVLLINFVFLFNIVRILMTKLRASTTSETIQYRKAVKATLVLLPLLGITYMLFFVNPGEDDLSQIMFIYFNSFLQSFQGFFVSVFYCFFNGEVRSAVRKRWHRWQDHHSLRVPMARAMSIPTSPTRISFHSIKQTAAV
T2 sequence (P24387 whole entry): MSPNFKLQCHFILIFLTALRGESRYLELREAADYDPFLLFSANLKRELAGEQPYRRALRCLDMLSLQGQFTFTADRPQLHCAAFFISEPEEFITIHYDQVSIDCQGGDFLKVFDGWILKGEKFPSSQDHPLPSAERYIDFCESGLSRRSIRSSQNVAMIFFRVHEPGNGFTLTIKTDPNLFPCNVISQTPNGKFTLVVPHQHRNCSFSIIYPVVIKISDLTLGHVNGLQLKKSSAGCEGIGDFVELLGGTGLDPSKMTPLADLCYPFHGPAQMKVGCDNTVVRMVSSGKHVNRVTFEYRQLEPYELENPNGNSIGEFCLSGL

[5] = biological target: T3, Mannose-6-phosphate isomerase (Homo sapiens, UniProt P34949); assay: phosphomannose isomerase inhibition – biochemical, fluorescence intensity, confirmation (AID 1535)
T3 sequence (P34949 whole entry): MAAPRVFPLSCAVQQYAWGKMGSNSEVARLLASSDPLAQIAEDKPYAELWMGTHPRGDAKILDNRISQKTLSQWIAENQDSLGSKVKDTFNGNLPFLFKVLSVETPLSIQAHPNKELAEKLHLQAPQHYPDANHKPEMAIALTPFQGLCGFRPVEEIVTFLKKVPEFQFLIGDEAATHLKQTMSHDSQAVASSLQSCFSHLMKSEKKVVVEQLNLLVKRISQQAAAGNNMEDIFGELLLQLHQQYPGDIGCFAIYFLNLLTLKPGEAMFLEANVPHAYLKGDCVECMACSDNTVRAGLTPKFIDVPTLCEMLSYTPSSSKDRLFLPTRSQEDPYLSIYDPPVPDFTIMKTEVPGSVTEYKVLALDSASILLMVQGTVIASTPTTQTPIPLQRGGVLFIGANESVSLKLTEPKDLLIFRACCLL

[6] = biological target: T4, Phosphomannomutase 2 (Homo sapiens, UniProt O15305); assay: Counter screen SAR assay for PMM2 inhibitors via a fluorescence intensity assay. [Related pubchem assays (depositor defined):AID1545, AID1574]
T4 sequence (O15305 whole entry): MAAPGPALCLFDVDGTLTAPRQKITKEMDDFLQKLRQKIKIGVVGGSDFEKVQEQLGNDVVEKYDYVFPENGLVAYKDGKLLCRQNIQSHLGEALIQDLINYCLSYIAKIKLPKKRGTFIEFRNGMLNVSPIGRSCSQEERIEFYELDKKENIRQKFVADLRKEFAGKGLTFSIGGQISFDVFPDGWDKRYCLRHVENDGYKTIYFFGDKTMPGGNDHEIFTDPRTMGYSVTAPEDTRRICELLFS

[7] = biological target: Cytochrome P450 3A4 (Homo sapiens, UniProt P08684);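 further: CYP3A4 tested as one member of a cytochrome P450 panel screen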
[8] = biological target: Cytochrome P450 2C9 (Homo sapiens, UniProt P11712)
[9] = biological target: T5, Hexokinase HKDC1 (Homo sapiens, UniProt Q2TB90); assay: activation of HKDC1 glucose phosphorylation – biochemical, W721R variant, dose response (AID 504730); assay type: functional
T5 sequence (Q2TB90 whole entry): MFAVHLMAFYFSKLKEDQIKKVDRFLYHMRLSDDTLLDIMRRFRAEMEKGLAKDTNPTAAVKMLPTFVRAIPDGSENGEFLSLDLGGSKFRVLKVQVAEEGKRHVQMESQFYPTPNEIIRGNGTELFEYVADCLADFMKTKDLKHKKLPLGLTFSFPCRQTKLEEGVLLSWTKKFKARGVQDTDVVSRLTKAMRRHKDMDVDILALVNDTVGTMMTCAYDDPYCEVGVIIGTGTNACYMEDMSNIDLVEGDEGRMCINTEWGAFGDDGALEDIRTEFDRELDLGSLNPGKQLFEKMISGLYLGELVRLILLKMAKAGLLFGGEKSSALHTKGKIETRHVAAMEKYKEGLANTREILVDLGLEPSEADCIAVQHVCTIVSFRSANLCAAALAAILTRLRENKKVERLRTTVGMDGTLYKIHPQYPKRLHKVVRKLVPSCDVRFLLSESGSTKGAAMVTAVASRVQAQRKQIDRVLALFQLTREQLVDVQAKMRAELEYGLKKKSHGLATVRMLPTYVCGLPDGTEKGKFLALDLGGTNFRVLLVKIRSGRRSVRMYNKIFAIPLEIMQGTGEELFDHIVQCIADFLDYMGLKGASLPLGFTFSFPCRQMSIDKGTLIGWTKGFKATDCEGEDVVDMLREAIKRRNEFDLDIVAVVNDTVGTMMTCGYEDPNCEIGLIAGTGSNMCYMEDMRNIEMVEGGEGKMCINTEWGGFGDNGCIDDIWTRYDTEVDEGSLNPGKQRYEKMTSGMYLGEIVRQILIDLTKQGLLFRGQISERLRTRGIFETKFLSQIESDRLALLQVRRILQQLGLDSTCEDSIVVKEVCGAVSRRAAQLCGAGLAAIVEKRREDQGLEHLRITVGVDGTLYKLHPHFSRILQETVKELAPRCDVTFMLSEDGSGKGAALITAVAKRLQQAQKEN

[10] = biological target: T6, Hexokinase-1 (Homo sapiens, UniProt P19367); assay: HK1 enzyme activation by HKDC1 hits – biochemical, selectivity assay for HKDC1 activator project, dose response (AID 504762); assay type: functional
T6 sequence (P19367 whole entry): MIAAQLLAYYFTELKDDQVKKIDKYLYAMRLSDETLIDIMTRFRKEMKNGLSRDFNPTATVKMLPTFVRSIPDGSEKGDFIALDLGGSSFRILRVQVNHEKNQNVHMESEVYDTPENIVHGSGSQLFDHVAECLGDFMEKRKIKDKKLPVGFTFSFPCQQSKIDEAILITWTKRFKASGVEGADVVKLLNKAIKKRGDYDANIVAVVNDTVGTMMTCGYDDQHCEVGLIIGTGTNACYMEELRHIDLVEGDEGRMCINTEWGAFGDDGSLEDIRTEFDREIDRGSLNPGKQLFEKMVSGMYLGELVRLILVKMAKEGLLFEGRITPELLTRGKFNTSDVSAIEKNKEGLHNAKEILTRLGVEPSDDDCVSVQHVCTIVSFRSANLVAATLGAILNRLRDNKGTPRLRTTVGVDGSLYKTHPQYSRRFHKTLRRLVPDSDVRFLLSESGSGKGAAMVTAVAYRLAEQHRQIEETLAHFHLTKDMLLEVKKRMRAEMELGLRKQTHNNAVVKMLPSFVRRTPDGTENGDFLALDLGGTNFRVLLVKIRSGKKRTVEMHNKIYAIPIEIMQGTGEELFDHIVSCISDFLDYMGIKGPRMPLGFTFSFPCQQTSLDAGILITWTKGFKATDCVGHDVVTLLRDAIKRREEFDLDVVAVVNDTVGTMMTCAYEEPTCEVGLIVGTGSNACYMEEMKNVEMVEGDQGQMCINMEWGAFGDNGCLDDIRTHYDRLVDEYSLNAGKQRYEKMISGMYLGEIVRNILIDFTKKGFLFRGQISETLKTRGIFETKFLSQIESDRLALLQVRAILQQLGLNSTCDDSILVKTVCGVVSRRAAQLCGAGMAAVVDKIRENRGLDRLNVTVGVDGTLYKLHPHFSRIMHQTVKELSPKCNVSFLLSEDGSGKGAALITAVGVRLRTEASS

[11] = biological target: Cytochrome P450 2D6 (Homo sapiens, UniProt P10635);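 further: CYP2D6 member of a cytochrome P450 panel assay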
[12] = biological target: Cytochrome P450 2C19 (Homo sapiens, UniProt P33261); assay: Cytochrome panel assay with activity outcomes. Panel member name: p450-cyp2c19 Compounds with AC50 equal or less than 10 uM are considered active; assay type: functional; settings: read-out: AC50
[13] = biological target: T7, Cytochrome P450 1A2 (Homo sapiens, UniProt P05177);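 further: PubChem cytochrome P450 panel assay, CYP1A2 panel member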
T7 sequence (P05177 whole entry): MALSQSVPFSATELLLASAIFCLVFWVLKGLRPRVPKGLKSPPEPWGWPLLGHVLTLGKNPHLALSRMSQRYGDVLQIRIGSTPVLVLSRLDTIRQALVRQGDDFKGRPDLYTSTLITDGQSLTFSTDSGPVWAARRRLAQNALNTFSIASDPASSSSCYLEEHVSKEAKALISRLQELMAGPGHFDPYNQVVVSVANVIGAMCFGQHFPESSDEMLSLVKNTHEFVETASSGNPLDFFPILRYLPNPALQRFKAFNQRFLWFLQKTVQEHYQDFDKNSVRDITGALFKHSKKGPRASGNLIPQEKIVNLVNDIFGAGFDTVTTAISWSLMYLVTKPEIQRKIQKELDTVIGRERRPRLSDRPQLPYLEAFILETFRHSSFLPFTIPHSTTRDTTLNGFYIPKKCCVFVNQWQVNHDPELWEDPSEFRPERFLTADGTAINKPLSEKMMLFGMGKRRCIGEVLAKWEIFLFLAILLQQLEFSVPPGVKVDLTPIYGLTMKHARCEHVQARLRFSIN

[14] = test system: Vero; assay: cells; assay type: functional; settings: Chlorocebus sabaeus

Chain of Cytochrome P450 2C9 (P11712 whole entry): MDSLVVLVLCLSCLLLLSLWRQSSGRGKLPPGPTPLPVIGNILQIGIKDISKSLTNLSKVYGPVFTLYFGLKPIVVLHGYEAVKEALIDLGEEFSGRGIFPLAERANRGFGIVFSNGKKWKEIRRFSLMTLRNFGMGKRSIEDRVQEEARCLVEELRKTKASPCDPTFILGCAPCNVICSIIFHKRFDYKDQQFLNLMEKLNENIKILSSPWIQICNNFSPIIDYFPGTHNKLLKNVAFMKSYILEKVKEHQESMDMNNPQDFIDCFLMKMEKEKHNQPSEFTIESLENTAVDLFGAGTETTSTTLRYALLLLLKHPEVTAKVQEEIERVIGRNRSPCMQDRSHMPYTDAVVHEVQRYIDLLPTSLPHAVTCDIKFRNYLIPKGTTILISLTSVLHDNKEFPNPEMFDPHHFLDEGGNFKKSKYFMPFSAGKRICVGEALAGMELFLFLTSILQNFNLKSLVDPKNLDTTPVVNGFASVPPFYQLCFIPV
Chain of Cytochrome P450 3A4 (P08684 whole entry): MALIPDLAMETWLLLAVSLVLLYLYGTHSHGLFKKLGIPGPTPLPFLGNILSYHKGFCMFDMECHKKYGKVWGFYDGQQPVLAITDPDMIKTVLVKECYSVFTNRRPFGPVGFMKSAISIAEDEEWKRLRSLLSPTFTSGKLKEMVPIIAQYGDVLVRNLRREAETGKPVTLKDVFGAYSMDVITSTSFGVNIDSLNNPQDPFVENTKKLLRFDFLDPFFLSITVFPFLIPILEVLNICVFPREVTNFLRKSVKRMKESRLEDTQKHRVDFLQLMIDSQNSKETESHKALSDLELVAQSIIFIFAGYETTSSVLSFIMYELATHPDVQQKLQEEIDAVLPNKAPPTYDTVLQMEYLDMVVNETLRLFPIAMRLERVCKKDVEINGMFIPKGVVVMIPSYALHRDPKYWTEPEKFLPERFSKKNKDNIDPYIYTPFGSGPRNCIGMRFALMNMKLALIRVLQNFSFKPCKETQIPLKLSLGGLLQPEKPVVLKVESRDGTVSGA
Chain of Cytochrome P450 2C19 (P33261 whole entry): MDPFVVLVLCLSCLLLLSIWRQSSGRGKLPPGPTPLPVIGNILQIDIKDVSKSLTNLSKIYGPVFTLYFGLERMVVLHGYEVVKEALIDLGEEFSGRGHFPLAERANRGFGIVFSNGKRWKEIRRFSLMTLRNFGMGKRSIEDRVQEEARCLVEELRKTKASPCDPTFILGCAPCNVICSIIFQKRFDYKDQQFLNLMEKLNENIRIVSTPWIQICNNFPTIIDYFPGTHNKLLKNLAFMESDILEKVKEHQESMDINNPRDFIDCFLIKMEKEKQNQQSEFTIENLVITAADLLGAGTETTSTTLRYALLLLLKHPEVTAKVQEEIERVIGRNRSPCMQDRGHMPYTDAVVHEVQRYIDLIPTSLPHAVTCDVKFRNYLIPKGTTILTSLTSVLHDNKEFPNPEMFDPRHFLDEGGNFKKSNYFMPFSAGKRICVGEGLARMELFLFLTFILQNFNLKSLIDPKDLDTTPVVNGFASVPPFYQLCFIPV
Chain of Cytochrome P450 2D6 (P10635 whole entry): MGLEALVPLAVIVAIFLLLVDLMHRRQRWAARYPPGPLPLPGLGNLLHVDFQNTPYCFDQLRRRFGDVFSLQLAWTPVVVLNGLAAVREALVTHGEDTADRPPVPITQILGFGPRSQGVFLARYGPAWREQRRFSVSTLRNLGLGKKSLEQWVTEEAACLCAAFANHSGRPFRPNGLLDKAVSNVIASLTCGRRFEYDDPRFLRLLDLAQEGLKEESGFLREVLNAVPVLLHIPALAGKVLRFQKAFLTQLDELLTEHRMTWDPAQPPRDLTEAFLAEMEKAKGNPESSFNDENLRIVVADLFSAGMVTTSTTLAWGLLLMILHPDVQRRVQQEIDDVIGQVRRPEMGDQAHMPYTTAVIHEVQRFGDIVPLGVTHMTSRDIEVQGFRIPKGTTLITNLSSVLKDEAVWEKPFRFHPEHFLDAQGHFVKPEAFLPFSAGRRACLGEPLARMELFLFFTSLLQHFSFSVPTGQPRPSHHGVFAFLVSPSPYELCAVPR

In the case of `COc1ccc(OC)c(/C=C2\N=C(c3ccccc3)OC2=O)c1`, the EC50 [1] is reported as 2.58 µM (active), the EC50 [2] is reported as > 99 µM (inactive) and the EC50 [3] is reported as 39.1 µM (inactive). For the same compound, the EC50 [4] was 2.29 µM (active).
In the case of `Cc1cc2n(n1)SC(Nc1cccc3ccccc13)N2` (centres undefined), the IC50 [5] is reported as > 50 µM (inactive) and the IC50 [6] is reported as > 100 µM (inactive).
For `Cc1cc2cc(CNC(=O)CC(C)C)ccc2n1C`, the AC50 [7] was 15.8 µM (inconclusive) and the AC50 [8] was “inconclusive”.
With `CCOC(=O)c1c(C)[nH]c(C2=NN=C(Nc3ccccc3)SC2)c1C` the EC50 [9] was 24.3 µM (inactive) and the EC50 [10] was 18.2 µM (active).
`COc1ccc(OC)c(S(=O)(=O)N2CCC(C(=O)NCCc3ccccc3)CC2)c1` was tested, and the AC50 [11] was 2.24 µM (inconclusive), the AC50 [7] was 39.8 µM (inconclusive) and the AC50 [8] was “inconclusive”.
In the case of `COC(=O)c1ccccc1NC(=O)C(CCS(C)(=O)=O)NC(C)=O` (centres undefined), the AC50 [12] is reported as 39.8 µM (inconclusive), the AC50 [13] is reported as 20 µM (inconclusive) and the AC50 [8] is reported as “inconclusive”.
For `Cn1c(SSc2ccc(-c3cccnc3)n2C)ccc1-c1cccnc1`, the EC50 [9] was 14.8 µM (active), the EC50 [10] was 14.2 µM (active) and the CC50 [14] was 16.8 µM (active).
